Data from ChEMBL document CHEMBL1158145, “Xenofuranones A and B: phenylpyruvate dimers from Xenorhabdus szentirmaii” (J Nat Prod, 2006).
In brackets after ≈: the same amount, converted by molar mass.

Test system: L929
Experiment: Cytotoxicity against mouse L929 cells
Type: cell-based

COC1=C(c2ccccc2)C(Cc2ccccc2)OC1=O (stereo unspecified) [XENOFURANONE A]
IC50: 18 µg/mL (≈ 64.2 µM)
